Counter-ions that a name gives are not always drawn.
Tests used:
[1] = system: Male Wistar rats; assay: Sucrose preference test (chronic mild stress model, CMS); assay type: in vivo, rat; conditions: for effect on sucrose intakes in control animals, compared to vehicle: control rats; for effect on sucrose intakes in control animals, compared to vehicle / effect on sucrose consumption in stressed animals, compared to vehicle: daily IP for five weeks, imipramine 10 mg/kg, vortioxetine 10 mg/kg, nalmefene 1 mg/kg, 1% sucrose solution; for effect on sucrose consumption in stressed animals, compared to vehicle: rats exposed to chronic mild stress; for weeks of treatment after which increase in sucrose intakes reached statistical significance versus Week 0 / overall effect in the CMS model (conclusion): stressed animals; for weeks of treatment after which increase in sucrose intakes reached statistical significance versus Week 0: daily IP; for overall effect in the CMS model (conclusion): five weeks of treatment
Description: Rodents inherently have an interest in sweet foods or liquids. Exposure to stressfull conditions reduces the interest for sweet foods or solutions, indicating a reduced sensitivity to rewards. This can be assessed for example in a sucrose preference test, where the stress-induced reduction of intake of a sucrose solution is used as a measure of anhedonia (reduces sensitivity to rewards). This stress-induced reduction of sucrose intake in the rat is a well-established animal model of anhedonia (Nielsen, Arnt and Sánchez. Intracranial self-stimulation and sucrose intake differ as hedonic measures following chronic mild stress: interstrain and interindividual differences. Behav. Brain. Res. (2000), 107 (1-2): 21-33).
Male Wistar rats (Charles River, Germany) were brought into the laboratory one month before the start of the experiment. Except as described below, the animals were singly housed with food and water freely available, and were maintained on a 12-h light/dark cycle (lights on at 08.00) and in a constant temperature (22±2° C.) and humidity (50±5%) conditions. All procedures used in this study are conformed to the rules and principles of the 86/609/EEC Directive, and were approved by the Local Bioethical Committee at the Institute of Pharmacology, Polish Academy of Sciences, Krakow, Poland.
After a period of 3 weeks of adaptation to laboratory and housing conditions, the animals were trained to consume a 1% sucrose solution; training consisted of nine 1 h baseline tests in which sucrose was presented, in the home cage, following 14 h food and water deprivation. The sucrose intake was measured by weighing pre-weighed bottles containing the sucrose solution, at the end of the test. Subsequently, sucrose consumption was monitored, under similar conditions, at weekly intervals throughout the whole experiment.
On the basis of their sucrose intakes in the final baseline test, the animals were divided into two matched groups. One group of animals was subjected to the chronic mild stress procedure for a period of 8 consecutive weeks. Each week of stress regime consisted of: two periods of food or water deprivation, two periods of 45 degree cage tilt, two periods of intermittent illumination (lights on and off every 2 h), two periods of soiled cage (250 ml water in sawdust bedding), one period of paired housing, two periods of low intensity stroboscopic illumination (150 flashes/min), and three periods of no stress. All stressors were 10-14 h of duration and were applied individually and continuously, day and night. […] They were deprived of food and water for 14 h preceding each sucrose test, but otherwise food and water were freely available in the home cage.
(§1) On the basis of their sucrose intakes following 2 weeks of initial stress, both stressed and control groups were each divided further into matched subgroups (n=8), and for subsequent five weeks they received daily IP administration of vehicle (0.9% saline, 1 ml/kg), Vortioxetine (10 mg/kg), Nalmefene (1 mg/kg), joint injections of Vortioxetine (10 mg/kg) and Nalmefene (1 mg/kg) or imipramine HCl (10 mg/kg) as the reference treatment. The volume of all injections was 1 ml/kg. The drugs were administered at approx. 10.00 and the weekly sucrose tests were carried out 24 h following the last drug injections. After five weeks all treatments were terminated and one additional sucrose test was carried out following one week of withdrawal. Stress was continued throughout the entire period of treatment and withdrawal.
The Fisher's LSD test was used for post-hoc comparisons of means.

[2] = Body weights in the CMS study
Procedure: as §1

[3] = biological target: κ-opioid receptors (Homo sapiens, UniProt P41145); conditions: in vitro studies; cited from earlier work
Sequence of κ-opioid receptors (P41145 whole entry): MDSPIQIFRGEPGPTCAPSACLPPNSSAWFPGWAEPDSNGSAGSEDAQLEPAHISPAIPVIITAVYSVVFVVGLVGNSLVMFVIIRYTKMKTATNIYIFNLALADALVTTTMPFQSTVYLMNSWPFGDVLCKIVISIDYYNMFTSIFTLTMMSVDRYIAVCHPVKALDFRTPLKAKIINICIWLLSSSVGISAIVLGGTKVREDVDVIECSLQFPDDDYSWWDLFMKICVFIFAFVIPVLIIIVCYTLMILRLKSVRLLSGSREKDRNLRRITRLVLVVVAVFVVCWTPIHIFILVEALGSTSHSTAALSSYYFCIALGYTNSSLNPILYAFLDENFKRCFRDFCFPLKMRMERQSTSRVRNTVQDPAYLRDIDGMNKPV

[4] = biological target: μ-opioid receptors (Homo sapiens, UniProt P35372); conditions: in vitro studies; cited from earlier work
Sequence of μ-opioid receptors (P35372 whole entry): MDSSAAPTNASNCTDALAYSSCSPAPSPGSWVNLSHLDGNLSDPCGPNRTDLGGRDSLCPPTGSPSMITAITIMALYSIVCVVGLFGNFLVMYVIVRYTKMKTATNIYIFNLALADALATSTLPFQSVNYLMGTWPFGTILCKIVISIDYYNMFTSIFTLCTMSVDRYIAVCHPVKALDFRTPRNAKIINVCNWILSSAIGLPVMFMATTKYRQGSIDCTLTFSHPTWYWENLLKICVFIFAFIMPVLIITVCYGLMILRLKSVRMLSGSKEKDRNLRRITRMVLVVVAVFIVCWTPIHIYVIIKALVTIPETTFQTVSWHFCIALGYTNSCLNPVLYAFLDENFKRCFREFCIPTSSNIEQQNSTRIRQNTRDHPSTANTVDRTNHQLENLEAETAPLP

[5] = biological target: δ-opioid receptors (Homo sapiens, UniProt P41143); conditions: in vitro studies; cited from earlier work
Sequence of δ-opioid receptors (P41143 whole entry): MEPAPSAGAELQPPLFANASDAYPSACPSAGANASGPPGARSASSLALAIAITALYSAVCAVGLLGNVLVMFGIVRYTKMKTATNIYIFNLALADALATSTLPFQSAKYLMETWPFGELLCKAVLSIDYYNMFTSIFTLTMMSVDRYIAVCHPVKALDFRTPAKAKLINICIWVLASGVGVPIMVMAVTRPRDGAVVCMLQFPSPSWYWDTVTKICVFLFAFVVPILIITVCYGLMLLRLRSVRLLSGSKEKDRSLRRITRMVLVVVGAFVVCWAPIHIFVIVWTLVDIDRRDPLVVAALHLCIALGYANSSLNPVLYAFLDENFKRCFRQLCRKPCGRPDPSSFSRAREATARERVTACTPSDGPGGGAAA

Compound	effect on sucrose intakes in control animals, compared to vehicle [1]	effect on sucrose consumption in stressed animals, compared to vehicle [1]	weeks of treatment after which increase in sucrose intakes reached statistical significance versus Week 0 [1]	overall effect in the CMS model (conclusion) [1]	Body weights after five weeks of treatment (means ± SEM), Controls ([2]; control rats, daily IP) [g]	effect on body weight compared to vehicle-treated group ([2]; rat, in vivo)	Body weights after five weeks of treatment (means ± SEM), Stressed ([2]; stressed rats, daily IP) [g]	effect on body weight compared to vehicle-treated group ([2]; control and stressed animals, decreases p<0.05 in controls, NS in stressed)	functional activity at the κ receptor [3]	functional activity at the μ receptor [4]	functional activity at the δ receptor [5]	Body weights after five weeks of treatment (means ± SEM), Controls ([2]; rat, in vivo, ip) [g]	Body weights after five weeks of treatment (means ± SEM), Stressed ([2]; rat, in vivo, ip) [g]
CN(C)CCCN1c2ccccc2CCc2ccccc21 [Imipramine, imipramine HCl]	no significant effect	gradually increased	three	fully reversed	350 ± 7	decreased	326 ± 7						
C=C1CC[C@@]2(O)[C@H]3Cc4ccc(O)c5c4[C@@]2(CCN3CC2CC2)[C@H]1O5 [Nalmefene, 17-(cyclopropylmethyl)-4,5-alpha-epoxy-6-methylenemorphinan-3,14-diol]	no effect	gradually increased	four	effective	371 ± 9		355 ± 11	did not affect	partial agonist activity	antagonist activity	antagonist activity		
Cc1ccc(Sc2ccccc2N2CCNCC2)c(C)c1 [Vortioxetine, 1-[2-(2,4-dimethyl-phenylsulfanyl)-phenyl]-piperazine]	no significant effect	no significant effect		not effective		decreased						348 ± 9	328 ± 9
